Measured values published in US20260151398A1, “COMPOUNDS FOR REDUCING CHOLESTEROL AND TREATING LIVER AND KIDNEY DISEASE” (McMaster University, priority 2021, published 2026).

Tests used:
LDLR = LDLR / CD36 expression in cultured hepatocytes; format: cell-based, human; settings: HepG2, 10 μM, immunofluorescent staining
Excerpt: Cells were washed in phosphate-buffered saline (PBS), lysed in 4× SDS-PAGE lysis buffer and separated on 7-10% polyacrylamide gels in denaturing conditions. […] Membranes were then exposed to horse radish peroxidase conjugated secondary antibodies and visualized using EZ-ECL chemiluminescent reagent (Froggabio). Band intensities were quantified using ImageJ software ([…]) against membranes reprobed for housekeeping proteins.
Slides were then mounted with permafluor and visualized using the EVOS FL colour imaging system at either 20 or 40× magnification.
(§1) RNA purification/isolation was performed using RNeasy mini kits (Qiagen) and normalized to 2 μg RNA using a NanoDrop® spectrophotometer. Samples were then reverse transcribed into cDNA using Superscript Vilo cDNA Synthesis kit (Thermofisher Scientific). Real-time PCR was executed with Fast SYBR Green (Thermo Fisher Scientific) using the ΔΔct method on the ViiA7 real-time PCR platform (Thermofisher Scientific).
(§2) The uptake and accumulation of DiI-LDL was then quantified using a fluorescent spectrophotometer (Molecular Devices). […] Live-cell staining of the LDLR was also performed in HepG2 cells exposed to DiI-LDL (FIG. 11 D).

PCSK9 [1] = assay: Secreted PCSK9 levels in HepG2 cells (ELISA); format: cell-based, human; settings: for reduction of secreted PCSK9 levels compared to CF at the same dose / PCSK9 mRNA expression and secreted levels with increasing doses: HepG2; for efficacy for PCSK9 inhibition compared with caffeine: initial screening; for PCSK9 reduction (100 nM): Table 6, HepG2 cells, 24 h, 100 nM as printed in the cell
Protocol: (§3) HuH7 and HepG2 cells were routinely grown in complete Dulbecco's Modified Eagle's Medium (Gibco, Thermofisher Scientific) supplemented with 10% fetal bovine serum (Sigma-Aldrich) and 100 U/ml of penicillin and streptomycin (Sigma-Aldrich). […] All cell treatments were carried out for 24 h unless otherwise stated. Cells were transfected with a cocktail consisting of plasmid DNA (1 μg), X-tremeGENE HP (3 μl; Thermofisher Scientific) and opti-MEM (100 μl; Thermofischer Scientific) per 1 ml complete medium containing plated cells. Human PCSK9 was overexpressed using the bicistronic pIRES-EGFP plasmid; calnexin using the mPA-GFP-N1 plasmid. To block the expression of GRP78 and CD36, siGENOME smartpool siRNA was purchased from GE Dharmacon (M-008198-02 and L-010206-00-0005 respectively) and transfected using lipofectamine RNAiMAX as per manufacturer's protocol.
(§4) Secreted PCSK9 levels were assessed directly in cell culture medium of cells grown in FBS-free medium for 24 h or in the serum isolated from either mice or human subjects. Mouse PCSK9 was measured using the Quantikinine® ELISA kit (#MCP900, R&D Systems) and human PCSK9 using the PCSK9 Quantikinine® ELISA kit (#DCP900, R&D Systems). Serum ApoB levels were also quantified using ELISAs (#DAPB00, R&D Systems). Serum samples were diluted as per manufacturer's instructions.
CF, however, is a well-characterized compound having several health benefits with few known adverse effects. Achieving an optimal level of PCSK9 inhibition absent of the neuro-excitatory effect of CF, however, may be a challenge for the long-term clinical application of these findings. […] See Table 6 for the structure activity relationships of several other known xanthine-based compounds explored at varying doses in HepG2 cells for 24 h.

HepG2 cells = assay: DiI-LDL uptake assay in HepG2 cells; format: cell-based, human; settings: for DiI-LDL cholesterol uptake: HepG2, 10 μM
Protocol: During the last 5 h of treatment (h 19 to 24) cells were exposed to DiI-LDL (10 μg/ml) and then washed with two changes of pre-warmed (37° C.) HBSS containing 20 mM HEPES prior to analysis.
as §2

SREBP2 = SREBP2 expression and activation in hepatocytes (real-time PCR, SRE-GFP reporter, immunoblot, immunofluorescence); format: cell-based, human, mouse; settings: HepG2, real-time PCR
Protocol: (§5) Cells were washed in phosphate-buffered saline (PBS), lysed in 4× SDS-PAGE lysis buffer and separated on 7-10% polyacrylamide gels in denaturing conditions. Gels were transferred to nitrocellulose membranes using the BioRad mini trans-blot system, blocked in 5% skim milk in tris-buffered saline (TBS) for 1 h and incubated in primary antibody overnight for 16 h at 4° C. Membranes were then exposed to horse radish peroxidase conjugated secondary antibodies and visualized using EZ-ECL chemiluminescent reagent (Froggabio). Band intensities were quantified using ImageJ software ([…]) against membranes reprobed for housekeeping proteins.
Cells were plated in 4-well chamber slides and incubated in complete DMEM for 24 h and exposed to treatments 24 h later for an additional 24 h. Cells were fixed with 4% paraformaldehyde for 30 minutes and washed with either non-permeabilizing, or permeabilizing PBS containing 0.025% Triton-X. Cells were then blocked with 1% bovine serum albumin (BSA) for 30 minutes and stained with anti-GFP antibody for 1 h in PBS containing 1% BSA. Afterwards, cells were washed and incubated with Alexa 488 fluorescently-labelled secondary antibodies (Thermofisher Scientific), as well as the DAPI nuclear stain. Slides were then mounted with permafluor and visualized using the EVOS FL colour imaging system at either 20 or 40× magnification.
as §1
Therefore, the effect of CF on TG-; induced SREBP2 activation was examined. […] SREBP2 activity was then examined at the protein level in HuH7 cells transfected with a plasmid encoding GFP driven by the sterol regulatory element (SRE-GFP; FIG. 2E to G). […] GFP expression was also visualized via immunofluorescent staining and quantified using ImageJ Software.

HepG2 hepatocytes = assay: LDH cytotoxicity assay in HepG2 hepatocytes; format: cell-based, human; settings: cultured HepG2 hepatocytes
Protocol: Secreted PCSK9 levels were assessed using ELISAs and mRNA transcript via real-time PCR. […] Secreted PCSK9, as well as PCSK9 mRNA and SREBP2 mRNA were assessed in these cells. (E) The cytotoxicity of these agents was examined using an LDH assay. […] (G) The uptake of DiI-LDL was also quantified in these cells using a spectrophotometer. Values are presented as the mean and error bars as SD. *, p<0.05 vs. vehicle; NS, non-significant.

PCSK9 [2] = assay: PCSK9 secretion from cultured and primary hepatocytes (ELISA of medium); format: cell-based, human, mouse; settings: ELISA of medium
Protocol: as §3, §4
All animal studies were carried out in 8 h-fasted male wild-type, Pcsk9^−/− or Ampkβ1^−/− mice on the C57BL/6J background. CF (25-100 mg/kg-8 h) and CDN (50 mg/kg) treatments were administered via intraperitoneal injection unless specified otherwise. Primary mouse hepatocytes were isolated using a two-step process with EGTA ([…] in HEPES buffer, Sigma Aldrich) and collagenase (0.05% in HEPES buffer, Sigma Aldrich) in 12-week-old male mice on the C57BL/6J background. Cells were then washed, centrifuged, and plated following isolation in cell strainers. Hepatosure® 100-donor pooled primary human hepatocytes were purchased from Xenotech. Primary hepatocytes were regularly grown in William's E medium (Gibco, Thermo Fisher Scientific) containing 10% fetal bovine serum, 100 IU/ml penicillin, and 100 µg/ml streptomycin.

[3] = test system: ER stress markers (GRP78, ATF4, pPERK, IRE1α, sXBP1, ATF6); assay: ER stress / UPR readouts in hepatocytes; format: cell-based, human; settings: HuH7; with TG 100 nM
Protocol: as §5
Following treatment, live cells were incubated in complete DMEM containing 5 μM Thioflavin-T (ThT; Thermofisher Scientific) for 15 minutes. Cells were then fixed in 4% paraformaldehyde and mounted with permafluor. Fluorescent staining was visualized using the EVOS FL colour system at either 20 or 40× magnification.
as §1
Because ER Ca^2+ depletion induces a compensatory unfolded protein response (UPR), it was also postulated that CF may attenuate UPR marker expression by increasing ER Ca^2+ levels. […] Reactive oxygen species production, a process known to occur during conditions of ER stress, was also attenuated by CF (FIG. 9 H). […] While increasing the protein binding ability of chaperones, such as GRP78, CF also attenuates SREBP2-driven gene expression (FIG. 7 L).

PCSK9 [4] = assay: PCSK9 expression in hepatocytes (immunoblot, real-time PCR); format: cell-based, human, mouse; settings: HuH7; ryanodine 10 μM, CDN 100 μM, 2 APB 50 μM; presence or absence of TG; 24 h
Protocol: as §3, §5, §1
Cultured immortalized hepatocytes known to express and secrete PCSK9 (Lebeau, P., et al., 2017), including HuH7 and HepG2 cells, as well as primary mouse- and human-hepatocytes (PMH and PHH, respectively), were treated with CF for 24 h and assessed for PCSK9 expression via immunoblots and real-time PCR (FIG. 1 A to D). […] Given that sterol deprivation represents another well-established promoter of SREBP2 activation (Lebeau, P., et al., 2017), cells were also treated with CF in the presence and absence of U18666A (U18) that depletes intracellular sterols. […] Next, HepG2 cells were treated with an increasing dose of CF.

Cn1c(=O)c2[nH]c(-c3cc(F)c(F)cc3F)nc2n(C)c1=O [Ia-1]
cell-surface LDLR expression (LDLR): significant increase in LDLR expression
reduction of secreted PCSK9 levels compared to CF at the same dose (PCSK9 [1]): 2 fold
efficacy for PCSK9 inhibition compared with caffeine (PCSK9 [1]): significantly greater efficacy for PCSK9 inhibition than caffeine
DiI-LDL cholesterol uptake (HepG2 cells): significant increase
PCSK9 and SREBP2 mRNA (SREBP2): antagonism of SREBP2 reduced de novo synthesis of PCSK9
cytotoxicity (LDH assay) (HepG2 hepatocytes): did not exhibit cytotoxic properties

Cn1c(=O)c2[nH]c(-c3ccncc3)nc2n(C)c1=O [I-9]
PCSK9 reduction (100 nM) (PCSK9 [1]): 0.86 (100 nM)

Cn1c(=O)c2[nH]c(-c3ccc([N+](=O)[O-])o3)nc2n(C)c1=O [Ia-7]
cell-surface LDLR expression (LDLR): significant increase in LDLR expression
reduction of secreted PCSK9 levels compared to CF at the same dose (PCSK9 [1]): 2 fold
efficacy for PCSK9 inhibition compared with caffeine (PCSK9 [1]): significantly greater efficacy for PCSK9 inhibition than caffeine
DiI-LDL cholesterol uptake (HepG2 cells): significant increase
PCSK9 and SREBP2 mRNA (SREBP2): antagonism of SREBP2 reduced de novo synthesis of PCSK9
cytotoxicity (LDH assay) (HepG2 hepatocytes): did not exhibit cytotoxic properties

Cn1c(=O)c2[nH]c(-c3ccc([N+](=O)[O-])cc3)nc2n(C)c1=O [I-10]
PCSK9 reduction (100 nM) (PCSK9 [1]): 0.93 (100 nM)

CCCn1c(=O)[nH]c2nc(-c3ccc(S(=O)(=O)N4CCN(c5ccc(Cl)cc5)CC4)cc3)[nH]c2c1=O [PSB603]
PCSK9 mRNA expression and secreted levels with increasing doses (PCSK9 [1]): dose-dependent reduction

CCN(CC)CCO[C@H]1CC[C@@]2(C)C(=CC[C@@H]3[C@@H]2CC[C@]2(C)C(=O)CC[C@@H]32)C1 [U18, U18666A]
PCSK9 secretion with Ca2+-modulating agents (PCSK9 [2]): increased PCSK9 secretion
LDLc (DiI-LDL) uptake (HepG2 cells; HepG2, 24 h treatment, DiI-LDL 5 h): reduced LDLc uptake

Cn1c(=O)c2[nH]c(C3CCCC3)nc2n(C)c1=O [8CD, 8-cyclopentyl-1,3-dimethylxanthine]
PCSK9 mRNA expression and secreted levels with increasing doses (PCSK9 [1]): dose-dependent reduction

CCCCCCCC/C=C\CCCCCCCC(=O)ON1C(=O)CC(S(=O)(=O)O)C1=O (stereo not shown) [sulfosuccinimidyl oleate]
effect of CD36 inhibition on CF-mediated DiI-LDL uptake (HepG2 cells; HepG2): failed to affect CF-mediated DiI-LDL uptake

Cn1cnc2c1c(=O)[nH]c(=O)n2C [theobromine]
PCSK9 mRNA expression and secreted levels with increasing doses (PCSK9 [1]): dose-dependent reduction

Cn1c(=O)c2c(nc(/C=C/c3cccc(Cl)c3)n2C)n(C)c1=O [8CC, 8-(3-Chlorostyryl) CF]
PCSK9 mRNA expression and secreted levels with increasing doses (PCSK9 [1]): dose-dependent reduction

NCCOB(c1ccccc1)c1ccccc1 [2 APB, 2-APB]
TG-induced GRP78 expression [3]: blocked TG-induced expression
SREBP2 and PCSK9 mRNA transcript level (PCSK9 [4]): blocked SREBP2 and PCSK9 at the mRNA transcript level
PCSK9 secretion with Ca2+-modulating agents (PCSK9 [2]): blocked PCSK9 secretion

Cn1c(=O)[nH]c2ncn(C)c2c1=O [paraxanthine]
PCSK9 mRNA expression and secreted levels with increasing doses (PCSK9 [1]): dose-dependent reduction
